Assay results reported in ChEMBL document CHEMBL1201862, “PubChem BioAssay data set” (2004).
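These data come from cells grown in 96-well plates and exposed to compound for 48 hours at five concentrations. The concentration for 50% growth inhibition is given as GI50.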 Activity calls are given as the source filed them. No stated cut-off is given here; in the data, active = GI50 up to about 1.1 µM and inactive = higher.

How the values were obtained:
Assay in all cases: DTP human tumour cell line panel, 48 h
COLO 205 = system: COLO 205
SR = system: SR
HCT-15 = system: HCT-15
NCI-H23 = system: NCI-H23
SF-295 = system: SF-295
MOLT-4 = system: MOLT-4
NCI-H226 = system: NCI-H226
UACC-62 = system: UACC-62
SW-620 = system: SW-620
UO-31 = system: UO-31
HL-60 = system: HL-60
HCC 2998 = system: HCC 2998
A549 = system: A549
LOX IMVI = system: LOX IMVI
RXF 393 = system: RXF 393
Malme-3M = system: Malme-3M
SK-MEL-5 = system: SK-MEL-5
CAKI-1 = system: CAKI-1

Row | Structure (SMILES) | GI50 (COLO 205) | GI50 (SR) | GI50 (HCT-15) | GI50 (NCI-H23) | GI50 (SF-295) | GI50 (MOLT-4) | GI50 (NCI-H226) | GI50 (UACC-62) | GI50 (SW-620) | GI50 (UO-31) | GI50 (HL-60) | GI50 (HCC 2998) | GI50 (A549) | GI50 (LOX IMVI) | GI50 (RXF 393) | GI50 (Malme-3M) | GI50 (SK-MEL-5) | GI50 (CAKI-1)
1 | CCOC(=O)Cn1c2ccccc2c(=O)c2cc(C)c(C)c(C#N)c21 | > 100 µM (inactive) | > 100 µM (inactive) | > 100 µM | > 100 µM (inactive) | 40.4 µM (inactive) | > 100 µM (inactive) | > 100 µM (inactive) | > 100 µM (inactive) | > 100 µM (inactive) | 68.5 µM (inactive) | > 100 µM (inactive) | > 100 µM (inactive) | > 100 µM (inactive) | > 100 µM (inactive) | 63.7 µM (inactive) | > 100 µM (inactive) |  | 
2 | CC(=O)OCC1OC(n2c(=O)n(-c3ccccc3)c(=O)c3cc(Br)cc(Br)c32)C(OC(C)=O)C(OC(C)=O)C1OC(C)=O (configuration not stated) | > 100 µM (inactive) |  | > 100 µM | > 100 µM (inactive) | 12 µM (inactive) | > 100 µM (inactive) | > 100 µM (inactive) | > 100 µM (inactive) | > 100 µM (inactive) | > 100 µM (inactive) | > 100 µM (inactive) | > 100 µM (inactive) | > 100 µM (inactive) | > 100 µM (inactive) | 48.1 µM (inactive) | > 100 µM (inactive) | > 100 µM (inactive) | 2.56 µM (inactive)
3 | Clc1cc(Cl)c2c(Cl)cc(Cl)c3c2c1N=S=N3 | > 100 µM (inactive) |  | 67.1 µM | > 100 µM (inactive) | > 100 µM (inactive) | 2.86 µM (inactive) | > 100 µM (inactive) | 62.5 µM (inactive) | > 100 µM (inactive) | > 100 µM (inactive) | 94.6 µM (inactive) | > 100 µM (inactive) | > 100 µM (inactive) | > 100 µM (inactive) | > 100 µM (inactive) | > 100 µM (inactive) | > 100 µM (inactive) | > 100 µM (inactive)
4 | O=C(Nc1ccccc1Cl)c1ccc([N+](=O)[O-])cc1 | > 100 µM (inactive) |  | > 100 µM | > 100 µM (inactive) | 46.7 µM (inactive) | > 100 µM (inactive) | > 100 µM (inactive) | > 100 µM (inactive) | > 100 µM (inactive) | > 100 µM (inactive) |  | > 100 µM (inactive) | > 100 µM (inactive) | > 100 µM (inactive) | 33.3 µM (inactive) | > 100 µM (inactive) | > 100 µM (inactive) | > 100 µM (inactive)
5 | Cc1cc2c(cc1C)[n+]([O-])c(C(=O)C/C(=N/NC(=O)c1ccccc1O)C(=O)Nc1ccccc1C(C)C)c(C)[n+]2[O-] | > 100 µM (inactive) |  | > 100 µM | > 100 µM (inactive) | > 100 µM (inactive) | 21.9 µM (inactive) | > 100 µM (inactive) | 68.1 µM (inactive) | 97.1 µM (inactive) |  | 14.8 µM (inactive) | > 100 µM (inactive) | > 100 µM (inactive) | 87.3 µM (inactive) | > 100 µM (inactive) | > 100 µM (inactive) | > 100 µM (inactive) | > 100 µM (inactive)
6 | COc1ccc(-c2oc3cc(O)c(OC)c(O)c3c(=O)c2OC2OC(CO)C(O)C(O)C2O)cc1 (configuration not stated) | > 100 µM (inactive) |  | > 100 µM | > 100 µM (inactive) | > 100 µM (inactive) | > 100 µM (inactive) |  | > 100 µM (inactive) | > 100 µM (inactive) | 82 µM (inactive) | > 100 µM (inactive) | > 100 µM (inactive) | > 100 µM (inactive) | > 100 µM (inactive) |  |  | > 100 µM (inactive) | 
7 | CC1=C(C)CC2(CCCCC2=O)[S+]([O-])C1 (configuration not stated) | > 100 µM (inactive) | > 100 µM (inactive) | > 100 µM | > 100 µM (inactive) | > 100 µM (inactive) | > 100 µM (inactive) | > 100 µM (inactive) | > 100 µM (inactive) | > 100 µM (inactive) | > 100 µM (inactive) | > 100 µM (inactive) | > 100 µM (inactive) | > 100 µM (inactive) | > 100 µM (inactive) | > 100 µM (inactive) | > 100 µM (inactive) | > 100 µM (inactive) | 
8 | C[Si](C)(C)/C(Br)=C\CCN1C(=O)CCC1O (configuration not stated) | > 100 µM (inactive) |  | > 100 µM | > 100 µM (inactive) | > 100 µM (inactive) | > 100 µM (inactive) | > 100 µM (inactive) | > 100 µM (inactive) | > 100 µM (inactive) | > 100 µM (inactive) |  |  | > 100 µM (inactive) | > 100 µM (inactive) | > 100 µM (inactive) | > 100 µM (inactive) |  | 
9 | C/C(CC(=O)Nc1ccc(NC(=O)/C(C)=N/NS(=O)(=O)c2ccc(C)cc2)cc1)=N\NS(=O)(=O)c1ccc(C)cc1 | > 100 µM (inactive) |  | > 100 µM | > 100 µM (inactive) | > 100 µM (inactive) | > 100 µM (inactive) | > 100 µM (inactive) | > 100 µM (inactive) | > 100 µM (inactive) | > 100 µM (inactive) | > 100 µM (inactive) | > 100 µM (inactive) | > 100 µM (inactive) | > 100 µM (inactive) | > 100 µM (inactive) | > 100 µM (inactive) | > 100 µM (inactive) | > 100 µM (inactive)
10 | C[C@H]1CC[P+](C)(c2ccccc2)C1 (some centres not stated) | > 100 µM (inactive) | > 100 µM (inactive) | > 100 µM | > 100 µM (inactive) | > 100 µM (inactive) | > 100 µM (inactive) | > 100 µM (inactive) | > 100 µM (inactive) | > 100 µM (inactive) | > 100 µM (inactive) | > 100 µM (inactive) | > 100 µM (inactive) | > 100 µM (inactive) | > 100 µM (inactive) | > 100 µM (inactive) | > 100 µM (inactive) | > 100 µM (inactive) | 
11 | Brc1cc2c(cc1Br)CN(c1ccccc1)C2 | > 100 µM (inactive) |  | 53.8 µM | > 100 µM (inactive) | > 100 µM (inactive) | > 100 µM (inactive) | > 100 µM (inactive) | > 100 µM (inactive) | > 100 µM (inactive) | > 100 µM (inactive) | > 100 µM (inactive) | > 100 µM (inactive) | > 100 µM (inactive) | > 100 µM (inactive) | 99.8 µM (inactive) | > 100 µM (inactive) | > 100 µM (inactive) | 
12 | CCc1cc2c(O)c(c1)Cc1cc(CC)cc(c1O)Cc1cc(CC)cc(c1O)Cc1cc(CC)cc(c1O)Cc1cc(CC)cc(c1O)Cc1cc(CC)cc(c1O)Cc1cc(CC)cc(c1O)C2 | > 100 µM (inactive) |  | > 100 µM | > 100 µM (inactive) | > 100 µM (inactive) | 78.2 µM (inactive) |  | > 100 µM (inactive) | > 100 µM (inactive) | > 100 µM (inactive) | > 100 µM (inactive) | > 100 µM (inactive) | > 100 µM (inactive) |  | 16.9 µM (inactive) | > 100 µM (inactive) | > 100 µM (inactive) | 
13 | NC(CNc1ccc(O)cc1)C(=O)O (configuration not stated) | > 100 µM (inactive) | 87.9 µM (inactive) | > 100 µM |  | > 100 µM (inactive) | > 100 µM (inactive) | > 100 µM (inactive) | 20.9 µM (inactive) | > 100 µM (inactive) | > 100 µM (inactive) | 31.5 µM (inactive) |  | > 100 µM (inactive) | 60.8 µM (inactive) | > 100 µM (inactive) | > 100 µM (inactive) | > 100 µM (inactive) | 81.8 µM (inactive)
14 | N=C(N)NS(=O)(=O)c1ccc(NC(=O)c2cccc3c(Nc4ccc(S(N)(=O)=O)cc4)c4ccccc4nc23)cc1 | > 100 µM (inactive) |  | > 100 µM | > 100 µM (inactive) | > 100 µM (inactive) | > 100 µM (inactive) |  | > 100 µM (inactive) | > 100 µM (inactive) | > 100 µM (inactive) |  | > 100 µM (inactive) | > 100 µM (inactive) | > 100 µM (inactive) | > 100 µM (inactive) | > 100 µM (inactive) | > 100 µM (inactive) | > 100 µM (inactive)
15 | CCCCCCCC(=O)OCC(C[As](=O)(O)O)OC(=O)CCCCCCC (configuration not stated) | 14.3 µM (inactive) | 16.6 µM (inactive) | 14.9 µM | 15.2 µM (inactive) | 16.6 µM (inactive) | 16.6 µM (inactive) | 22.3 µM (inactive) | 13.8 µM (inactive) | 15.6 µM (inactive) | 15 µM (inactive) | 5.56 µM (inactive) | 17.7 µM (inactive) | 23 µM (inactive) |  | 5.01 µM (inactive) | 15.1 µM (inactive) | 18.1 µM (inactive) | 
16 | CC1C=CC(O)[C@]2(CO)CC3(CCC12)OCCO3 (some centres not stated) |  | > 100 µM (inactive) |  | > 100 µM (inactive) | > 100 µM (inactive) | > 100 µM (inactive) | > 100 µM (inactive) | > 100 µM (inactive) | > 100 µM (inactive) | > 100 µM (inactive) | > 100 µM (inactive) | > 100 µM (inactive) | > 100 µM (inactive) |  | > 100 µM (inactive) | > 100 µM (inactive) | > 100 µM (inactive) | > 100 µM (inactive)
17 | O=C(CC(=O)c1ccccc1)c1ccccc1.O=C(CC(=O)c1ccccc1)c1ccccc1.O=C(CC(=O)c1ccccc1)c1ccccc1.[SiH4] | 2.21 µM (inactive) | 3.57 µM (inactive) |  | 3.15 µM (inactive) | 4.65 µM (inactive) | 2.59 µM (inactive) | 8.87 µM (inactive) | 3.89 µM (inactive) | 4.15 µM (inactive) | 4.56 µM (inactive) | 1.92 µM (inactive) | 3.6 µM (inactive) | 3.01 µM (inactive) | 3.1 µM (inactive) |  | 11.8 µM (inactive) | 4.66 µM (inactive) | 4.92 µM (inactive)
